The source made the active and inactive calls.
What was measured:
[1] = biological target: T1, CDK9/cyclin T1 (Homo sapiens) (UniProt O60563+P50750); assay: Induction of CDK9/Cyclin T1 degradation in human 22Rv1 cells assessed as downregulation of MCL1 protein expression at 0.3 to 3 uM incubated for 24 hrs by immunoblot analysis; type: cell-based; conditions: dose 0.3-3 µM
[2] = biological target: T1, CDK9/cyclin T1 (Homo sapiens); assay: Induction of CDK9/Cyclin T1 degradation in human 22Rv1 cells assessed as decrease in cyclin B1 protein expression at 3 uM measured for 36 hrs by DIA-based proteomics analysis; type: cell-based
[3] = tested on: CWR22R; assay: Induction of cell cycle arrest in human 22Rv1 cells assessed as accumulation of cells at G1 phase at 0.3 to 1 uM incubated for 24 hrs by propidium iodide staining based flow cytometry; type: functional; conditions: dose 0.3-1 µM
[4] = tested on: CWR22R; assay: Downregulation of CDK7 level in human 22Rv1 cells at 3 uM measured after 12 hrs by DIA-based proteomics analysis; type: functional, cell-based
[5] = biological target: T1, CDK9/cyclin T1 (Homo sapiens); assay: Induction of CDK9/Cyclin T1 degradation in human 22Rv1 cells assessed as downregulation of AKR1C3 gene expression at 2 uM incubated for 24 hrs by RNA-Seq based analysis; type: cell-based
[6] = biological target: T1, CDK9/cyclin T1 (Homo sapiens); assay: Induction of CDK9/Cyclin T1 degradation in human 22Rv1 cells assessed as downregulation of AR-V7 splice variant protein expression at 0.3 to 3 uM measured after 24 hrs by immunoblot analysis; type: cell-based; conditions: dose 0.3-3 µM
[7] = biological target: T2, Cyclin-T1 (Homo sapiens, UniProt O60563); assay: Induction of HA-tagged Cyclin T1 (unknown origin) polyubiquitination expressed in HEK293T cells co-transfected with Flag-tagged CDK9 and Myc ubiquitin assessed as increase in K48-linkage poly-ubiqutinated Cyclin T1 level at 1 to 2 uM incubated for 20 hrs by western blot analysis; type: cell-based; conditions: dose 1-2 µM
[8] = biological target: Cyclin-dependent kinase 6 (Homo sapiens) (UniProt Q00534); assay: Induction of CDK6 degradation in human 22Rv1 cells assessed as downregulation of CDK6 level at 3 uM measured after 12 hrs by DIA-based proteomics analysis; type: cell-based
[9] = biological target: T3, Cyclin-dependent kinase 9 (Homo sapiens, UniProt P50750); assay: Induction of Flag-tagged CDK9 (unknown origin) polyubiquitination expressed in HEK293T cells co-transfected with HA-tagged Cyclin T1 and Myc ubiquitin assessed as increase in K48-linkage poly-ubiqutinated CDK9 level at 1 to 2 uM incubated for 20 hrs by western blot analysis; type: cell-based; conditions: dose 1-2 µM
[10] = biological target: T1, CDK9/cyclin T1 (Homo sapiens); assay: Induction of CDK9/Cyclin T1 degradation in human 22Rv1 cells assessed as downregulation of MYCL gene expression at 2 uM incubated for 24 hrs by RNA-Seq based analysis; type: cell-based
[11] = biological target: T1, CDK9/cyclin T1 (Homo sapiens); assay: Induction of CDK9/Cyclin T1 degradation in human 22Rv1 cells assessed as downregulation of CCNE2 gene expression at 2 uM incubated for 24 hrs by RNA-Seq based analysis; type: cell-based
[12] = biological target: T2, Cyclin-T1; assay: Induction of Hyt-mediated degradation of cyclin T1 in human 22Rv1 cells assessed as downregulation of cyclin T1 level at 2 uM incubated for 24 hrs by DIA-based proteomics analysis; type: cell-based
[13] = biological target: T1, CDK9/cyclin T1 (Homo sapiens); assay: Induction of CDK9/Cyclin T1 degradation in human 22Rv1 cells assessed as downregulation of JMJD6 protein expression at 3 uM measured after 36 hrs by DIA-based proteomics analysis; type: cell-based
[14] = tested on: CWR22R; assay: Inhibition of colony formation in human 22Rv1 cells at 100 to 200 nM treated for 14 days with replacement with fresh medium containing compound for every 48 hrs by crystal violet staining based analysis; type: functional, cell-based; conditions: dose 100-200 nM, time 14.0 day
[15] = biological target: T1, CDK9/cyclin T1 (Homo sapiens); assay: Induction of CDK9/Cyclin T1 degradation in human 22Rv1 cells assessed as downregulation of ZNF517 gene expression at 2 uM incubated for 24 hrs by RNA-Seq based analysis; type: cell-based
[16] = biological target: T1, CDK9/cyclin T1 (Homo sapiens); assay: Induction of CDK9/Cyclin T1 degradation in human 22Rv1 cells assessed as downregulation of AR protein expression at 3 uM measured for 36 hrs by DIA-based proteomics analysis; type: cell-based
[17] = tested on: CWR22R; assay: Downregulation of CDK1 level in human 22Rv1 cells at 3 uM measured after 12 hrs by DIA-based proteomics analysis; type: functional, cell-based
[18] = biological target: T1, CDK9/cyclin T1 (Homo sapiens); assay: Induction of CDK9/Cyclin T1 degradation in human 22Rv1 cells assessed as decrease in cyclin A2 protein expression at 3 uM measured for 36 hrs by DIA-based proteomics analysis; type: cell-based
[19] = biological target: Cyclin-dependent kinase 4 (Homo sapiens) (UniProt P11802); assay: Induction of CDK4 degradation in human 22Rv1 cells assessed as downregulation of CDK4 level at 3 uM measured after 12 hrs by DIA-based proteomics analysis; type: cell-based
[20] = biological target: T1, CDK9/cyclin T1 (Homo sapiens); assay: Induction of CDK9/Cyclin T1 degradation in human 22Rv1 cells assessed as downregulation of AR-V7 splice variant protein expression at 2 uM measured after 24 hrs by immunoblot analysis; type: cell-based
[21] = biological target: T1, CDK9/cyclin T1 (Homo sapiens); assay: Induction of CDK9/Cyclin T1 degradation in human 22Rv1 cells assessed as downregulation of CDC6 gene expression at 2 uM incubated for 24 hrs by RNA-Seq based analysis; type: cell-based
[22] = biological target: T1, CDK9/cyclin T1 (Homo sapiens); assay: Induction of CDK9/Cyclin T1 degradation in human 22Rv1 cells assessed as downregulation of MYCN gene expression at 2 uM incubated for 24 hrs by RNA-Seq based analysis; type: cell-based
[23] = biological target: T1, CDK9/cyclin T1 (Homo sapiens); assay: Induction of CDK9/Cyclin T1 degradation in human 22Rv1 cells assessed as downregulation of KLK2 gene expression at 2 uM incubated for 24 hrs by RNA-Seq based analysis; type: cell-based
[24] = biological target: T1, CDK9/cyclin T1 (Homo sapiens); assay: Induction of CDK9/Cyclin T1 degradation in human 22Rv1 cells assessed as downregulation of WNT2 gene expression at 2 uM incubated for 24 hrs by RNA-Seq based analysis; type: cell-based
[25] = biological target: T1, CDK9/cyclin T1 (Homo sapiens); assay: Induction of CDK9/Cyclin T1 degradation in human 22Rv1 cells assessed as downregulation of c-Myc protein expression at 2 uM measured after 24 hrs by immunoblot analysis; type: cell-based
[26] = biological target: T2, Cyclin-T1; assay: Induction of HyT-mediated degradation of Cyclin T1 in human 22Rv1 cells at 0.3 to 3 uM incubated for 24 hrs by immunoblot analysis; type: cell-based; conditions: dose 0.3-3 µM
[27] = biological target: T3, Cyclin-dependent kinase 9; assay: Induction of Hyt-mediated degradation of CDK9 in human 22Rv1 cells assessed as downregulation of CDK9 level at 2 uM incubated for 24 hrs by DIA-based proteomics analysis; type: cell-based
[28] = biological target: T1, CDK9/cyclin T1 (Homo sapiens); assay: Induction of CDK9/Cyclin T1 degradation in human 22Rv1 cells assessed as downregulation of AR protein expression at 0.3 to 3 uM measured after 24 hrs by immunoblot analysis; type: cell-based; conditions: dose 0.3-3 µM
[29] = biological target: T1, CDK9/cyclin T1 (Homo sapiens); assay: Induction of CDK9/Cyclin T1 degradation in human 22Rv1 cells assessed as downregulation of SLC1A5 gene expression at 2 uM incubated for 24 hrs by RNA-Seq based analysis; type: cell-based
[30] = biological target: Glycogen synthase kinase-3 alpha (Homo sapiens) (UniProt P49840); assay: Induction of Hyt-mediated degradation of GSK3A in human 22Rv1 cells assessed as downregulation of GSK3A protein level at 2 uM incubated for 24 hrs by DIA-based proteomics analysis; type: cell-based
[31] = biological target: T1, CDK9/cyclin T1 (Homo sapiens); assay: Induction of CDK9/Cyclin T1 degradation in human 22Rv1 cells assessed as downregulation of NKX3-1 protein expression at 0.3 to 3 uM incubated fo 24 hrs by immunoblot analysis; type: cell-based; conditions: dose 0.3-3 µM

T2 sequence (O60563 whole entry): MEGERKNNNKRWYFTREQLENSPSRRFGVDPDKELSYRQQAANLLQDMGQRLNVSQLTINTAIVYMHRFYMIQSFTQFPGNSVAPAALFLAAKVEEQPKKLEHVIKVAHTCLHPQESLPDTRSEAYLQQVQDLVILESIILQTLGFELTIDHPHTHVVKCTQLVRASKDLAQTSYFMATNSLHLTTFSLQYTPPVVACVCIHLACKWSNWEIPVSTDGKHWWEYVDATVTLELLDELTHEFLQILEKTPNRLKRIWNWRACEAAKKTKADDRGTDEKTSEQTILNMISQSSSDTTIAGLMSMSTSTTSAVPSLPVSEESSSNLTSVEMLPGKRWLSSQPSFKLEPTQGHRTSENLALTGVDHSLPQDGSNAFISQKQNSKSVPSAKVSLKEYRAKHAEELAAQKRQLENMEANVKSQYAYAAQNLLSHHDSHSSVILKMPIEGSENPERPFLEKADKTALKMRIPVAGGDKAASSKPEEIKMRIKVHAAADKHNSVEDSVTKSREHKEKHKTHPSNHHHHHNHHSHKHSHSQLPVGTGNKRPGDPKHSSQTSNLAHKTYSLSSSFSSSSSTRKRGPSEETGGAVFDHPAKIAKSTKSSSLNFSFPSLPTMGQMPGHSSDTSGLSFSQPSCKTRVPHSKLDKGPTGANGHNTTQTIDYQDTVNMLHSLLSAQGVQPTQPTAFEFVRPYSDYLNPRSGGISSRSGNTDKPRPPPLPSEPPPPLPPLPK
T3 sequence (P50750 whole entry): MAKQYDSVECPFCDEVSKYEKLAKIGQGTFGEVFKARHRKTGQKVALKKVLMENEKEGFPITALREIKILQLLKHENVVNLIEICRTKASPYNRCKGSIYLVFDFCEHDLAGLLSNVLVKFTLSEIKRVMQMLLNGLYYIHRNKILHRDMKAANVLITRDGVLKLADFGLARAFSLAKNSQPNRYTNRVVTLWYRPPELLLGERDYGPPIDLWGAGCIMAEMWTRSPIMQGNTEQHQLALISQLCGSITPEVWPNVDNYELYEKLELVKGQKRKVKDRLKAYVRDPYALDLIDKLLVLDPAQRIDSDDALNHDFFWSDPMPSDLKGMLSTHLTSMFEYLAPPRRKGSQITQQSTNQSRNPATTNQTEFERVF
Chain of Cyclin-dependent kinase 4 (Homo sapiens) (P11802 whole entry, canonical isoform): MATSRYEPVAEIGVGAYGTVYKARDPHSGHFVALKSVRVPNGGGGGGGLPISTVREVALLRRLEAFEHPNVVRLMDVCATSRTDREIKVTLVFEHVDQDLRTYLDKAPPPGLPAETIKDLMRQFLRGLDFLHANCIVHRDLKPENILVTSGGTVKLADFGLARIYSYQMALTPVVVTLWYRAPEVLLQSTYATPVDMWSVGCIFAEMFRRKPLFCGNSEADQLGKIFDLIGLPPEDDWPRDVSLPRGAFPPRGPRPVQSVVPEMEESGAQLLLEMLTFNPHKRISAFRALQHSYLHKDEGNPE
Chain of Glycogen synthase kinase-3 alpha (Homo sapiens) (P49840 2-483 limits assumed): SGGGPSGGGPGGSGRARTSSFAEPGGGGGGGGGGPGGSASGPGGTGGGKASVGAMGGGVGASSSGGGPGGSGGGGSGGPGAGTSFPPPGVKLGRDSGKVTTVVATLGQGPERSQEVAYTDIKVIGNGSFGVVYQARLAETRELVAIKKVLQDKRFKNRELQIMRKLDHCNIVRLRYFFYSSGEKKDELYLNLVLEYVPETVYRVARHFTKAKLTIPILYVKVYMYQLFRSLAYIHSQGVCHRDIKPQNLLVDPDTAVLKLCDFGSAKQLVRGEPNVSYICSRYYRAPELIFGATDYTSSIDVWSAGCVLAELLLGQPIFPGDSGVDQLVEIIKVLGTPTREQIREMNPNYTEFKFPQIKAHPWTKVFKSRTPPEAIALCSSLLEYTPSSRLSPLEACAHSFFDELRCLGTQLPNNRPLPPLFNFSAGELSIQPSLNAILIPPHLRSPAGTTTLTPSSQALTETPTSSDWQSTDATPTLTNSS
Chain of Cyclin-dependent kinase 6 (Homo sapiens) (Q00534 whole entry): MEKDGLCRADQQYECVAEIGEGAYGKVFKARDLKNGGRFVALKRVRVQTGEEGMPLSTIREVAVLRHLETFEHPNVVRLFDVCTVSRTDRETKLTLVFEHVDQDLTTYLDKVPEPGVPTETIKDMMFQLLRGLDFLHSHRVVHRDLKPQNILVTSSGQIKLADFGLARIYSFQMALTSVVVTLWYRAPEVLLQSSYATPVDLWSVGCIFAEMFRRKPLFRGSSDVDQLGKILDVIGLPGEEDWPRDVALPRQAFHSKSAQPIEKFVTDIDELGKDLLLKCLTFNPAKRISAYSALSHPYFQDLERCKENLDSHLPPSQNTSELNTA

CC(C)[C@@H]1CC[C@@H](C)C[C@H]1OCC(=O)NCCS(=O)(=O)N1CCC(C(=O)Nc2ncc(SCc3ncc(C(C)(C)C)o3)s2)CC1
active: Activity [1] | Activity [2] | Activity [3] | inhibition [4] | Activity [5] | Activity [6] | Activity [7] | Activity [8] | Activity [9] | Activity [10] | Activity [11] | Activity [12] | Activity [13] | inhibition [14] | Activity [15] | Activity [16] | inhibition [17] | Activity [18] | Activity [19] | Activity [20] | Activity [21] | Activity [22] | Activity [23] | Activity [24] | Activity [25] | Activity [26] | Activity [27] | Activity [28] | Activity [29] | Activity [30] | Activity [31]

From ChEMBL document CHEMBL5113511, “Discovery of Small-Molecule Degraders of the CDK9-Cyclin T1 Complex for Targeting Transcriptional Addiction in Prostate Cancer” (J Med Chem, 2022)
